Measured values taken from BindingDB's records for PubMed 31865013 (n/a, 2020).

Molecular target: T1, Histone deacetylase 6 (Homo sapiens, UniProt Q9UBN7)
T1 sequence (Q9UBN7 whole entry): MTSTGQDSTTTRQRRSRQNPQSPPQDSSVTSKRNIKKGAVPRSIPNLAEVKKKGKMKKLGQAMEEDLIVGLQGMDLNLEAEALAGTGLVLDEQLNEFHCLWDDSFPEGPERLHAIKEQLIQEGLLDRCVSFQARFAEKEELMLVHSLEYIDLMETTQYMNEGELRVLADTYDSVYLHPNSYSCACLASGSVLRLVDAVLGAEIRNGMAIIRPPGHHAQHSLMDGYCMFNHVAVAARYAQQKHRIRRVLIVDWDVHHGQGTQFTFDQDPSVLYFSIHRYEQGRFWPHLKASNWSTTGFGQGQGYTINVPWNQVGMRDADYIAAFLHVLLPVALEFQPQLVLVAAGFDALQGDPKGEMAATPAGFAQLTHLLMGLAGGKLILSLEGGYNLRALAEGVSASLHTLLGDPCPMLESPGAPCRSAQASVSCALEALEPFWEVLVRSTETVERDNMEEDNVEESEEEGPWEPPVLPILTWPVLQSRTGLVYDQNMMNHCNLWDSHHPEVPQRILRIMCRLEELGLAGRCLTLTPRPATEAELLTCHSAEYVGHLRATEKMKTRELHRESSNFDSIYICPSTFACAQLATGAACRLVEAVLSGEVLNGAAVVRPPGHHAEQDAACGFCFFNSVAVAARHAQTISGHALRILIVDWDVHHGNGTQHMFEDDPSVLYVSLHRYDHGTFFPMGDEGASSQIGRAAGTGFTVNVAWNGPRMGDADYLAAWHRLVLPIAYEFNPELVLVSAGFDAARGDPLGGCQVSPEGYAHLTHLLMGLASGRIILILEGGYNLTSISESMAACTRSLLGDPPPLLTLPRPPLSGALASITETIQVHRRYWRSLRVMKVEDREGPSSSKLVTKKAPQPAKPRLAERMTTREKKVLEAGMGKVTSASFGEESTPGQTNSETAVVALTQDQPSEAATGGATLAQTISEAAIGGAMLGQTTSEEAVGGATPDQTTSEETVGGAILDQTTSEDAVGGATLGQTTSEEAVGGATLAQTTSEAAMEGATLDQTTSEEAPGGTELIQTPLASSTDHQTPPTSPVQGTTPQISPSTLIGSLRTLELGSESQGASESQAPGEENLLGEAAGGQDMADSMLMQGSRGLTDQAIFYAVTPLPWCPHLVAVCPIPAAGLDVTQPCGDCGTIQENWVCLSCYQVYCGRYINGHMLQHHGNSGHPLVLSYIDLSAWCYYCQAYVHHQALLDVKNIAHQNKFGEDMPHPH
Experiment: Inhibition of HDAC6 (unknown origin) using Fluor de lys as substrate by fluorescence based analysis

| IC50 | Compound |
| --- | --- |
| 18 nM | CCc1cc(Cc2cnc(N)nc2N)cc(CC)c1N |
| 11 nM | CCCCCCCCCCCCOc1c(CC)cc(Cc2cnc(N)nc2N)cc1CC |
| 17 nM | Nc1ncc(Cc2ccc3c(c2)CCCN3)c(N)n1 |
| 16 nM | COCCOc1cc(Cc2cnc(N)nc2N)cc2c1NCCC2 |
